Structures are written as SMILES.

Settings in all cases: average where tested multiple times
The target of experiment [1] is T1, BCAT2 (Homo sapiens, UniProt O15382).
T1 sequence (O15382 28-392): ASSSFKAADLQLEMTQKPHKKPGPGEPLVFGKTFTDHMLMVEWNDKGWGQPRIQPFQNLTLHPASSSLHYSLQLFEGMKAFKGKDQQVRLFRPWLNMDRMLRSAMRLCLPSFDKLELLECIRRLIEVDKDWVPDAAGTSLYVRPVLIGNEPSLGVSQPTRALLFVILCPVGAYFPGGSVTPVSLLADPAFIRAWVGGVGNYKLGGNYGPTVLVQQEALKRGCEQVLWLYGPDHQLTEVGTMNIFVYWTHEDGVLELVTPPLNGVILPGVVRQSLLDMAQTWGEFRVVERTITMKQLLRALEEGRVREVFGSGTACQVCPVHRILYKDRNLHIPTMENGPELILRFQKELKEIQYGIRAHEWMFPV
The experiment can be described thus: BCAT2 in vitro enzyme inhibition assay (resazurin/diaphorase-coupled fluorescence). The format is biochemical. Further details: key to BCAT2 Enzyme Inhibition: A: less than or equal to 0.100 μM; B: greater than 0.100 and less than or equal to 0.500 μM; C: greater than 0.500 and less than or equal to 1.000 μM; d: greater than 1.000 μM; E: no fit. In short, it runs like this: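 Coupled fluorescence readout: glutamate formed from L-leucine/α-ketoglutarate transamination drives GDH/NAD/diaphorase reduction of resazurin (Ex 540/Em 590). Human BCAT2 was first exposed 1 h at room temperature to compound, top final 100 μM in 3-fold, 10-point series; substrate reaction ran 1 h before SDS quench, in technical duplicate with DMSO max and enzyme-free min controls.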
In general terms: Resazurin is reduced to fluorescent resorufin, in cell work by metabolically active cells.

For another experiment, the target named is T2, hBCAT1 (Homo sapiens, UniProt P54687).
T2 sequence (P54687 1-386): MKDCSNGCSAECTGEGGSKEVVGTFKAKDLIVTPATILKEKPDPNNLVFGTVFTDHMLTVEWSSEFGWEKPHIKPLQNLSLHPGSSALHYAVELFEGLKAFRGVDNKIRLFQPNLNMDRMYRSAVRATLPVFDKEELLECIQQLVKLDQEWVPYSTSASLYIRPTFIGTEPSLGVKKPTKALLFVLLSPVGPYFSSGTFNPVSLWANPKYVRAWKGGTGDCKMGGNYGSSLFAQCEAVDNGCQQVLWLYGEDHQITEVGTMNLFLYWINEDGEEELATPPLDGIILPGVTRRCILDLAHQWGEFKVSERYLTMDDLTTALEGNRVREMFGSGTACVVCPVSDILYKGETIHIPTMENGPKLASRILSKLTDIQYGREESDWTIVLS
Briefly: BCAT1 in vitro enzyme inhibition assay (resazurin/diaphorase-coupled fluorescence). The format is biochemical. The protocol: BCAT1 In Vitro Enzyme Inhibition Assay
Meanwhile the Substrate Mix was prepared.
Test Compound Preparation:
Test compounds were prepared at 50× final concentration in DMSO, 1 to 3 dilutions were made for 10 points. The compounds were added to the assay as a 1 to 50 dilution (1 μL in 50 μL) to yield a top assay final concentration of 100 μM, decreasing 3-fold for 10 points. […] All tests were performed in technical duplicate.
Where a compound was tested multiple times, the average value of the tests is reported.

Experiment [2] addresses T1, BCAT2. Briefly: BCAT2 in vitro cell inhibition using engineered A549 cells (KMV cell assay, 13C6-KMV by LC-MS/MS). The format is cell-based. Also noted: The result was an engineered A549 cell line that expressed endogenous BCAT2; endogenous in cells; host or cells: A549 cells with MUT and BCAT1 knocked out by CRISPR/CAS9; key to BCAT2 Cell Inhibition: A: less than or equal to 0.100 μM; B: greater than 0.100 and less than or equal to 0.500 μM; C: greater than 0.500 and less than or equal to 1.000 μM; d: greater than 1.000 μM; E: no fit.

In general, IC50 refers to the concentration needed to halve the response being measured. In the case of `O=C(NC1COCC(n2c(-c3ncccc3F)nc3cnc(-n4ccnn4)cc32)C1)c1ncc(C(F)F)s1` (single isomer, unassigned) [Example 144, 5-(difluoromethyl)-N-(5-(2-(3-fluoropyridin-2-yl)-6-(1H-1,2,3-triazol-1-yl)-1H-imidazo[4,5-c]pyridin-1-yl)tetrahydro-2H-pyran-3-yl)thiazole-2-carboxamide], the IC50 against BCAT2 [1] is 500 to 1000 nM; on hBCAT1, above 5000 nM.
For `O=C(NC1COCC(n2c(-c3ccccn3)nc3cnc(-n4ccnn4)cc32)C1)c1ncc(C(F)F)s1` (single isomer, unassigned) [Example 146, 5-(difluoromethyl)-N-(5-(2-(pyridin-2-yl)-6-(1H-1,2,3-triazol-1-yl)-1H-imidazo[4,5-c]pyridin-1-yl)tetrahydro-2H-pyran-3-yl)thiazole-2-carboxamide], the concentration for half-maximal inhibition (IC50) on BCAT2 [1] is above 1000 nM; at hBCAT1, above 5000 nM.
As for `CC(C)Cc1nc2cnc(-c3ncccn3)cc2n1[C@H]1C[C@H](O)C[C@@H](NC(=O)c2ncc(Cl)s2)C1` (stereo in doubt) [Example 398, 5-chloro-N-((1S,3R,5R)-3-hydroxy-5-(2-isobutyl-6-(pyrimidin-2-yl)-1H-imidazo[4,5-c]pyridin-1-yl)cyclohexyl)thiazole-2-carboxamide], the results for the half-maximal inhibitory concentration (IC50) against BCAT2 [1] and at hBCAT1 were at most 100 nM and below 500 nM, respectively.
On to `CC(C)Cc1nc2cnc(-c3nc[nH]n3)cc2n1[C@@H]1C[C@H](NC(=O)c2ccc(Cl)s2)CC(F)(F)C1` (stereo in doubt) [Example 454, 5-chloro-N-((1S,5R)-3,3-difluoro-5-(2-isobutyl-6-(1H-1,2,4-triazol-3-yl)-1H-imidazo[4,5-c]pyridin-1-yl)cyclohexyl)thiophene-2-carboxamide], for which the IC50 is at most 100 nM on BCAT2 [1] and below 500 nM against hBCAT1.
Turning to `O=C(N[C@H]1CCC[C@@H](n2c(-c3ccccc3F)nc3cnc(-n4cncn4)cc32)C1)c1ccc(Br)s1` [Example 17, 5-bromo-N-((1S,3R)-3-(2-(2-fluorophenyl)-6-(1H-1,2,4-triazol-1-yl)-1H-imidazo[4,5-c]pyridin-1-yl)cyclohexyl)thiophene-2-carboxamide], the concentration for half-maximal inhibition (IC50) on BCAT2 [1] is at most 100 nM; at hBCAT1, below 500 nM.
In the case of `C#Cc1cnc(C(=O)N[C@H]2CCC[C@@H](n3c(-c4ccccn4)nc4cnc(-n5cncn5)cc43)C2)s1` [Example 27, 5-ethynyl-N-((1S,3R)-3-(2-(pyridin-2-yl)-6-(1H-1,2,4-triazol-1-yl)-1H-imidazo[4,5-c]pyridin-1-yl)cyclohexyl)thiazole-2-carboxamide], the half-inhibitory concentration (IC50) was at most 100 nM at BCAT2 [1] and 1000 to 5000 nM on hBCAT1.
Regarding `O=C(N[C@@H]1CCCC[C@H](n2c(-c3ccccc3F)nc3cnc(-c4nc[nH]n4)cc32)[C@H]1O)c1ccc(Cl)s1` [Example 404, 5-chloro-N-((1R,2S,3S)-3-(2-(2-fluorophenyl)-6-(1H-1,2,4-triazol-3-yl)-1H-imidazo[4,5-c]pyridin-1-yl)-2-hydroxycycloheptyl)thiophene-2-carboxamide], the IC50 against BCAT2 [1] was in the range of 100 to 500 nM; on BCAT2 [2], 500 to 1000 nM.
`COc1cccc(F)c1-c1nc2cnc(-c3nc[nH]n3)cc2n1[C@H]1CCCC[C@@H](NC(=O)c2ccc(Cl)s2)[C@@H]1O` [Example 406, 5-chloro-N-((1R,2S,3S)-3-(2-(2-fluoro-6-methoxyphenyl)-6-(1H-1,2,4-triazol-3-yl)-1H-imidazo[4,5-c]pyridin-1-yl)-2-hydroxycycloheptyl)thiophene-2-carboxamide] showed an IC50 on BCAT2 [1] of 500 to 1000 nM. Further, the “BCAT2 Cell Inhibition” value at BCAT2 [2] is “E”.
Taken in the same sequence, the figures for `CO[C@@H]1C[C@@H](NC(=O)c2ncc(Cl)s2)C[C@@H](n2c(CC(C)C)nc3cnc(-n4cncn4)cc32)C1` [Example 418, 5-chloro-N-((1S,3R,5R)-3-(2-isobutyl-6-(1H-1,2,4-triazol-1-yl)-1H-imidazo[4,5-c]pyridin-1-yl)-5-methoxycyclohexyl)thiazole-2-carboxamide] were above 1000 nM and “E”.
With `CO[C@@H]1C[C@@H](NC(=O)c2ncc(Cl)s2)C[C@@H](n2c(-c3ccccc3F)nc3cnc(N4CCC[C@H]4CO)cc32)C1` [Example 430, 5-chloro-N-((1S,3R,5R)-3-(2-(2-fluorophenyl)-6-((S)-2-(hydroxymethyl)pyrrolidin-1-yl)-1H-imidazo[4,5-c]pyridin-1-yl)-5-methoxycyclohexyl)thiazole-2-carboxamide], the IC50 against BCAT2 [1] and at BCAT2 [2] was above 1000 nM in each case.
Turning to `CO[C@H]1[C@@H](NC(=O)c2ncc(Cl)s2)CCC[C@H]1n1c(-c2ccccc2F)nc2cnc(-c3nc[nH]n3)cc21` [Example 433, 5-chloro-N-((1S,2S,3R)-3-(2-(2-fluorophenyl)-6-(1H-1,2,4-triazol-3-yl)-1H-imidazo[4,5-c]pyridin-1-yl)-2-methoxycyclohexyl)thiazole-2-carboxamide], on BCAT2 [1], the “BCAT2 Enzyme Inhibition” value is listed as “E”. In addition, the “BCAT2 Cell Inhibition” value on BCAT2 [2] was “E”.
Regarding `CO[C@@H]1[C@H](NC(=O)c2ncc(Cl)s2)CCC[C@@H]1n1c(-c2ccccc2F)nc2cnc(-c3nc[nH]n3)cc21` [Example 434, 5-chloro-N-((1R,2R,3S)-3-(2-(2-fluorophenyl)-6-(1H-1,2,4-triazol-3-yl)-1H-imidazo[4,5-c]pyridin-1-yl)-2-methoxycyclohexyl)thiazole-2-carboxamide], the “BCAT2 Enzyme Inhibition” value at BCAT2 [1] was “E”. For the same compound, on BCAT2 [2], the “BCAT2 Cell Inhibition” value is reported as “E”.
`CO[C@@H]1C[C@@H](NC(=O)c2ncc(Cl)s2)C[C@@H](n2c(CC(C)C)nc3cnc(-c4ncccn4)cc32)C1` [Example 436, 5-chloro-N-((1S,3R,5R)-3-(2-isobutyl-6-(pyrimidin-2-yl)-1H-imidazo[4,5-c]pyridin-1-yl)-5-methoxycyclohexyl)thiazole-2-carboxamide] returned an IC50 on BCAT2 [1] of 500 to 1000 nM. Further, the “BCAT2 Cell Inhibition” value on BCAT2 [2] is “E”.
For the compound `CS(=O)(=O)N1C[C@@H](NC(=O)c2ccc(Cl)s2)C[C@@H](n2c(-c3ccccc3F)nc3cnc(-c4nc[nH]n4)cc32)C1` [Example 459, 5-chloro-N-((3S,5R)-5-(2-(2-fluorophenyl)-6-(1H-1,2,4-triazol-3-yl)-1H-imidazo[4,5-c]pyridin-1-yl)-1-(methylsulfonyl)piperidin-3-yl)thiophene-2-carboxamide], the IC50 is at most 100 nM on BCAT2 [1] and 100 to 500 nM on BCAT2 [2].
On to `COC(=O)N1C[C@@H](NC(=O)c2ccc(Cl)s2)C[C@@H](n2c(-c3ccccc3F)nc3cnc(-c4nc[nH]n4)cc32)C1` [Example 463, methyl (3S,5R)-3-(5-chlorothiophene-2-carboxamido)-5-(2-(2-fluorophenyl)-6-(1H-1,2,4-triazol-3-yl)-1H-imidazo[4,5-c]pyridin-1-yl)piperidine-1-carboxylate], for which the IC50 against BCAT2 [1] was at most 100 nM; at BCAT2 [2] it was 500 to 1000 nM.
For `O=C(N[C@H]1CCC[C@@H](n2c(-c3ccccc3F)nc3ccc(-c4ncco4)cc32)[C@@H]1O)c1ncc(Cl)s1` [Example 465, 5-chloro-N-((1S,2R,3R)-3-(2-(2-fluorophenyl)-6-(oxazol-2-yl)-1H-benzo[d]imidazol-1-yl)-2-hydroxycyclohexyl)thiazole-2-carboxamide], in that order: at most 100 nM and at most 100 nM.
For `O=C(N[C@H]1CCC[C@@H](n2c(-c3ccccc3F)nc3ccc(-c4ncccn4)cc32)[C@@H]1O)c1ncc(Cl)s1` [Example 466, 5-chloro-N-((1S,2R,3R)-3-(2-(2-fluorophenyl)-6-(pyrimidin-2-yl)-1H-benzo[d]imidazol-1-yl)-2-hydroxycyclohexyl)thiazole-2-carboxamide], in that order: at most 100 nM and at most 100 nM.

Source of the values: patent US20260159512A1, “BCAT2 INHIBITORS” (AGIOS PHARMACEUTICALS, INC., priority 2021, published 2026).
